Measurements published in US8293738B2, “Indazole inhibitors of kinase” (Abbott Laboratories, priority 2010, dated 2012).

How the values were obtained:
[1] = target: T1, KDR (Homo sapiens, UniProt P35968); assay: KDR HTRF in vitro kinase assay; format: biochemical; parameters: purified enzyme (His6-KDR 789-1354, MW 63 kD); details: 1 mM ATP, 60 minutes
Method: To determine the activity of the various kinases, a homogenous time-resolved fluorescence (HTRF) in vitro kinase assay was used. (Mathis, G., HTRF(R) Technology. J Biomol Screen, 1999. 4(6): p. 309-314; Alfred J. Kolb, Paul V. Kaplita, David J. Hayes, Young-Whan Park, Christine Pernell, John S. Major and Gerard Mathis, Drug Discovery Today, 1998, 3, 333-342.)
For example for KDR, 7 ng/well of purified enzyme (His6-KDR 789-1354, MW 63 kD) was mixed with 0.5 μM N-biotinylated substrate (Biotin-Ahx-AEEEYFFLA-amide (SEQ. ID. 1)), various concentrations of inhibitor in reaction buffer (50 mM HEPES, pH 7.1, mM MgCl2, 2 mM MnCl2, 0.1% BSA and 1 mM DTT, […] final volume), ATP (1 mM final conc.) in a black 384-well plate. After 60 minutes incubation at room temperature, the reaction was quenched by addition of a buffered EDTA solution (final approximate concentrations: 30 mM EDTA, 0.1% BSA, 0.1% Triton X-100 and 0.24M KF) and a solution of revelation agents (to give 0.084 ng/well streptavidin-XL-665 (Cis-Bio) and 6.5 ng/well antiphsophotyrosine mAb PT66-K Europium kryptate) was added to the reaction mixture. The quenched reaction was allowed to stand at room temperature for 3 hours and was then read in a time-resolved fluorescence detector (InVision, Perkin-Elmer) at 620 nm and 665 nm sequentially with excitation. The ratio between the signal of 620 nm and 665 nm was used in the calculation of the IC50.
Target sequence in this assay (P35968 789-1354): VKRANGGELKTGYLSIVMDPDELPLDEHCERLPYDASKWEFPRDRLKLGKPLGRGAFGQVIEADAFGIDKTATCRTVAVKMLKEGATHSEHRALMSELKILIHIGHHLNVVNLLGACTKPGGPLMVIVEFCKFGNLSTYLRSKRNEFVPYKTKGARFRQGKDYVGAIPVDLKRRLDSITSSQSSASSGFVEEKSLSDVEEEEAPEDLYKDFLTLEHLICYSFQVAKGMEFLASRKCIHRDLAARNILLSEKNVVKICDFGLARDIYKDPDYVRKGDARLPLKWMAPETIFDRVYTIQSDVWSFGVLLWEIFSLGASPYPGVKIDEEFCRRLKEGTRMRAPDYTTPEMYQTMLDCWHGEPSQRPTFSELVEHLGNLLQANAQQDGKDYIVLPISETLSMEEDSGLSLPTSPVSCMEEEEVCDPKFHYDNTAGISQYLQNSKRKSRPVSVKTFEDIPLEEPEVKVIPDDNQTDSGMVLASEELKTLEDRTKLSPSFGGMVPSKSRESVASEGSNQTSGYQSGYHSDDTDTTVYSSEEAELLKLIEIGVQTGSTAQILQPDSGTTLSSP

[2] = target: T1, KDR; assay: KDR cell assay; format: cell-based
Target sequence in this assay (P35968 20-1356, species assumed): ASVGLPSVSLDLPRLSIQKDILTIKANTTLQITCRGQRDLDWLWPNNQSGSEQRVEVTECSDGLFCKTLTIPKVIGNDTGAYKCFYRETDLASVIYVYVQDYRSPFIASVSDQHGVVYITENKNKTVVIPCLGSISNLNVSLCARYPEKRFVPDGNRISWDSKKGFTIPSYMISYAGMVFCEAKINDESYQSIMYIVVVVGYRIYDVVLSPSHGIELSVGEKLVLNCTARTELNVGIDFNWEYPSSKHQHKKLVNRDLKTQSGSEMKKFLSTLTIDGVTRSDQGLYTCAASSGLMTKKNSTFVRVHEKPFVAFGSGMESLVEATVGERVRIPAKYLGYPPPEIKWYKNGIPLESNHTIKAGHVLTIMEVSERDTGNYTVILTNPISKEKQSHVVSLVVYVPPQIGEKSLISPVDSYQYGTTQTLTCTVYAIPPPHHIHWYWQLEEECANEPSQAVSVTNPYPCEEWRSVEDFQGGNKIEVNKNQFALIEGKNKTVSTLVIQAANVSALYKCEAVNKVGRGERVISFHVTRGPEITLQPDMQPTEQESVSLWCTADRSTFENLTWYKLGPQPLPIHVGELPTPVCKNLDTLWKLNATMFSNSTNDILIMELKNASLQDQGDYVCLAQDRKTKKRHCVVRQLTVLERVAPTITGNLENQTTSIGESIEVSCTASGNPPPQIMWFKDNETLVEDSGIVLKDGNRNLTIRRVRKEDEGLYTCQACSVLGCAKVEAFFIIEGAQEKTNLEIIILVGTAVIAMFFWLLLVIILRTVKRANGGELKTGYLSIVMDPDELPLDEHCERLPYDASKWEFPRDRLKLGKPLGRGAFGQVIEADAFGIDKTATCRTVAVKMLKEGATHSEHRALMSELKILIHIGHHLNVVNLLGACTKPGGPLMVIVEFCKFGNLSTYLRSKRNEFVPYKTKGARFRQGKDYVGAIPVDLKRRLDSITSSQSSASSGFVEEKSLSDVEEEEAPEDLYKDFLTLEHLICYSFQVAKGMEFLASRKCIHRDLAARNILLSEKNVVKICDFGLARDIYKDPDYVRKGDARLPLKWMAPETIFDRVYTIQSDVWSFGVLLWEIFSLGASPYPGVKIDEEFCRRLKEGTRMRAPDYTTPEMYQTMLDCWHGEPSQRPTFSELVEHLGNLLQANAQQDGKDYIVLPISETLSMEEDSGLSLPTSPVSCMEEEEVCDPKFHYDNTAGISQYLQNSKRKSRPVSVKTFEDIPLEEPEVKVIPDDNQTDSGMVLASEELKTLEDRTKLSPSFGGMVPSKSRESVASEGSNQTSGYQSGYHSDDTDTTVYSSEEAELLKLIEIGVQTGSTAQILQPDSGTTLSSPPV

[3] = target: T2, Aurora B (Homo sapiens, UniProt Q96GD4); assay: Aurora B enzyme assay (time-resolved fluorescence, histone H3 peptide); format: biochemical; details: 1 mM ATP, 1 hour
T2 construct: Active Aurora B enzyme (recombinant residues 1-344)
Method: To determine Aurora B activity of representative compounds of the invention, Active Aurora B enzyme (recombinant residues 1-344) and INCENP (recombinant GST fusion protein (Upstate)) were incubated in wells of a 384 well plate with biotinylted histone H3 peptide residues 1-21 (Upstate), 1 mM ATP, and various concentrations of inhibitors in a HEPES buffer, pH 7.4 containing MgCl2, sodium othrovanadate, and Triton X-100. After 1 hour, the reaction was stopped with EDTA and anti-phospho-histone H3 Europium Cryptate (Cis-Bio) and SA-APC (Phycolink, Prozyme) were added to detect the phosphopeptide. The amount of phosphorylation was determined by the time-resolved fluorescence ratio of signals at 665 nm and 615 nm. The IC50's were calculated by an exponential fit of the inhibition values with the inhibitor concentrations using Assay Explorer software.

[4] = system: H1299 cells (Human Non-Small Cell Lung Carcinoma); assay: Induction of polyploidy in H1299 cells, high content analysis; format: cell-based; details: NCI-H1299 cells, 48 hours, polyploid = nuclear area >750μ2, read-out: Polyploid HCA IC50
Method: To determine the induction of polyploidy in H1299 cells (Human Non-Small Cell Lung Carcinoma), NCI-H1299 were seeded (4K/well) into 96-well culture plates (tissue culture grade, black, flat-clear bottom) and incubated overnight to produce cell-to-plate adherance Inhibitors at varying concentrations were added into duplicate wells containing cells and culture media (RPMI 1640, 10% fetal calf serum) and incubated at 37 C for 48 hours. The plates were then washed with PBS and the adherent cells fixed by incubating with 3% formalin for 1 hour. After washing four times with PBS, the cells were then stained with Hoechst and subjected to fluorescent (3601/460e) microscopic high content analysis to determine the effect of inhibitors on nuclear size. Polyploid cells (>4N) were defined as those having nuclear area >750μ2. […]

[5] = target: T3, Aurora A (Homo sapiens, UniProt O14965); assay: Aurora A enzyme assay (time-resolved fluorescence, STK substrate-2); format: biochemical; details: 1 mM ATP, 1 hour
T3 sequence (O14965 1-403): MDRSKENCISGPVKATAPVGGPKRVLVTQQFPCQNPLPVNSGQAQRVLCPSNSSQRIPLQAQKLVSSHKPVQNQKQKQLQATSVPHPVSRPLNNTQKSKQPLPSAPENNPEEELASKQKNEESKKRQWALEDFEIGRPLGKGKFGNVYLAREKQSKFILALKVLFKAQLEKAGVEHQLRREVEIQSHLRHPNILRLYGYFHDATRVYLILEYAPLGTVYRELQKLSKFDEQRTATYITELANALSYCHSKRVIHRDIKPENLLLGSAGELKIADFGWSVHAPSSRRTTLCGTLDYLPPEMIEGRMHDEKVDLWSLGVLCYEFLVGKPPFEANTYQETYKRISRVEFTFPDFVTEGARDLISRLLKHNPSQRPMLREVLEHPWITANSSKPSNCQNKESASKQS
Method: To determine Aurora A and C activity of representative compounds of the invention, Active Aurora A or C enzyme was incubated in wells of a 384 well plate with biotinylated STK substrate-2 (Upstate), 1 mM ATP, and various concentrations of inhibitors in a Hepes buffer, pH 7.4 containing MgCl2, sodium othrovanadate, and Triton X-100. After 1 hour, the reaction was stopped with EDTA and anti-phospho-STK antibody Europium Cryptate (Upstate) and SA-XL665 (Upstate) were added to detect the phosphopeptide. The amount of phosphorylation was determined by the time-resolved fluorescence ratio of signals at 665 nm and 615 nm. The IC50s were calculated by an exponential fit of the inhibition values with the inhibitor concentrations using Assay Explorer software.

T2 sequence (Q96GD4 whole entry, the tested form may be a part): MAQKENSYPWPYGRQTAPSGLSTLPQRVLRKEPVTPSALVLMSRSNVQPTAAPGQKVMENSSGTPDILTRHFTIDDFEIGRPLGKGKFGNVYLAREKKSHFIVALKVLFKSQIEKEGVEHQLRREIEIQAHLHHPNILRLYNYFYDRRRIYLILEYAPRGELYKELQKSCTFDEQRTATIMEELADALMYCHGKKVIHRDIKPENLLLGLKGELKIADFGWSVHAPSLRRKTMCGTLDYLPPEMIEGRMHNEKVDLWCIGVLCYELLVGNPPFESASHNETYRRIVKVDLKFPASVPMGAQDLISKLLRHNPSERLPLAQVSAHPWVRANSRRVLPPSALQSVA
T2 sequence (Q9NQS7 826-918 partner limits assumed): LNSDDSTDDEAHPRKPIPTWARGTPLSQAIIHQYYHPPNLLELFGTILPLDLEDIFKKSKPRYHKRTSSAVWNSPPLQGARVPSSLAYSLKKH

Row | SMILES | IC50 [1] [µM] | IC50 [2] [µM] | IC50 [3] [µM] | IC50 [4] [µM] | IC50 [5] [µM]
1 | Cn1cc(-c2n[nH]c3cc(-c4ccc(NC(=O)Nc5cccc(F)c5)cc4)ccc23)cn1 [Example 1, N-(3-fluorophenyl)-N′-{4-[3-(1-methyl-1H-pyrazol-4-yl)-1H-indazol-6-yl]phenyl}urea] | 0.0549 | 0.0871 | 0.0192 | 0.001 | 0.371
2 | Cc1cccc(NC(=O)Nc2ccc(-c3ccc4c(-c5cnn(C)c5)n[nH]c4c3)cc2)c1 [Example 2, N-(3-methylphenyl)-N′-{4-[3-(1-methyl-1H-pyrazol-4-yl)-1H-indazol-6-yl]phenyl}urea] | 0.0274 | 0.046 | 0.017 | 0.006 | > 12.5
3 | Cc1cccc(NC(=O)Nc2ccc(-c3ccc4c(-c5cnn[nH]5)n[nH]c4c3)cc2)c1 [Example 3, N-(3-methylphenyl)-N′-{4-[3-(1H-1,2,3-triazol-5-yl)-1H-indazol-6-yl]phenyl}urea] | 0.045 | 0.316 | 0.0405 | 0.035 | 2.49
4 | O=C(Nc1ccc(-c2ccc3c(-c4cnn(CCN5CCOCC5)c4)n[nH]c3c2)cc1)Nc1cccc(F)c1 [Example 6, N-(3-fluorophenyl)-N′-(4-{3-[1-(2-morpholin-4-ylethyl)-1H-pyrazol-4-yl]-1H-indazol-6-yl}phenyl)urea] | 0.0861 | 0.187 | 0.0212 | 0.018 | 1
5 | O=C(Nc1ccc(-c2ccc3c(-c4cn[nH]c4)n[nH]c3c2)cc1)Nc1cccc(F)c1 [Example 9, N-(3-fluorophenyl)-N′-{4-[3-(1H-pyrazol-4-yl)-1H-indazol-6-yl]phenyl}urea] | 0.0763 | 0.3 | 0.0327 | 0.014 | 0.221
6 | O=C(Nc1ccc(-c2ccc3c(-c4cnn(CCO)c4)n[nH]c3c2)cc1)Nc1cccc(F)c1 [Example 10, N-(3-fluorophenyl)-N′-(4-{3-[1-(2-hydroxyethyl)-1H-pyrazol-4-yl]-1H-indazol-6-yl}phenyl)urea] | 0.0511 | 0.206 | 0.0236 | 0.043 | 0.294
7 | Cc1cccc(NC(=O)Nc2ccc(-c3ccc4c(-c5cnn(CCO)c5)n[nH]c4c3)cc2)c1 [Example 12, N-(4-{3-[1-(2-hydroxyethyl)-1H-pyrazol-4-yl]-1H-indazol-6-yl}phenyl)-N′-(3-methylphenyl)urea] | 0.06 | 0.176 | 0.0441 | 0.055 | > 12.5
8 | O=C(Nc1ccc(-c2ccc3c(-c4cnn(C5CCNCC5)c4)n[nH]c3c2)cc1)Nc1cccc(F)c1 [Example 16, N-(3-fluorophenyl)-N′-{4-[3-(1-piperidin-4-yl-1H-pyrazol-4-yl)-1H-indazol-6-yl]phenyl}urea] | 0.0446 | 0.135 | 0.0109 | 0.216 | > 12.5
9 | Cn1cc(-c2n[nH]c3cc(-c4ccc(NC(=O)Nc5ccc(C(F)(F)F)cc5)cc4)ccc23)cn1 [Example 19, N-{4-[3-(1-methyl-1H-pyrazol-4-yl)-1H-indazol-6-yl]phenyl}-N′-[4-(trifluoromethyl)phenyl]urea] | 0.0451 | 0.216 | 0.108 | – | 10.8
10 | Cn1cc(-c2n[nH]c3cc(-c4ccc(NC(=O)Nc5cccc(Cl)c5)cc4)ccc23)cn1 [Example 22, N-(3-chlorophenyl)-N′-{4-[3-(1-methyl-1H-pyrazol-4-yl)-1H-indazol-6-yl]phenyl}urea] | 0.0148 | 0.0475 | 0.0325 | 0.001 | 0.267
11 | Cn1cc(-c2n[nH]c3cc(-c4ccc(NC(=O)Nc5ccccc5Cl)cc4)ccc23)cn1 [Example 23, N-(2-chlorophenyl)-N′-{4-[3-(1-methyl-1H-pyrazol-4-yl)-1H-indazol-6-yl]phenyl}urea] | 0.0807 | 0.355 | 0.0249 | 0.01 | 0.246
12 | Cc1cc(NC(=O)Nc2ccc(-c3ccc4c(-c5cnn(C)c5)n[nH]c4c3)cc2)no1 [Example 30, N-(5-methylisoxazol-3-yl)-N′-{4-[3-(1-methyl-1H-pyrazol-4-yl)-1H-indazol-6-yl]phenyl}urea] | 0.0322 | 0.123 | 0.0103 | 0.001 | 0.299
